Consider one compound from patent US8716233B2, “NOTCH mutations leading to increased receptor signaling” (The Brigham and Women's Hospital, Inc., priority 2004, dated 2014).

In experiment [1] the test system is human T-ALL cell lines. Kind of experiment: Gamma-secretase inhibitor treatment of T-ALL cell lines, cell cycle analysis by flow cytometry. Format: cell-based. The conditions noted are these: compound E 1 μM, 4-8 days; thirty human T-ALL cell lines lacking t(7;9); compared with murine T6E reference line. On the procedure:
FIG. 2A-2C. Identification of T-ALL cell lines that require NOTCH signals for growth. (2A) Effect of the γ-secretase inhibitor compound E (GSI, 1 μM) or vehicle alone (mock) on the cell cycle distribution of sensitive cell lines. Cells were treated for 4-8 days, fixed in cold 70% ethanol, stained with propidium iodide, and analyzed by flow cytometry. Live cells were gated by forward/side scatter criteria. (2B) Rescue of GSI-induced cell cycle arrest by MSCV-GFP-ICN1 retrovirus. (2C) Induction of cell cycle arrest by dominant negative MSCV-GFP-Mastermind-like-1 retrovirus. In (2B) and (2C), control cultures were transduced with control empty MSCV-GFP retrovirus or the indicated test virus. Two days post-transduction, cultures were split in two and treated with either compound E (GSI) or DMSO vehicle (mock) for 7-10 days. Cultures were then harvested and stained with the DNA dye DRAQ5, which permits flow cytometric measurement of DNA content in unsorted GFP− and GFP+ subpopulations. A minimum of 15,000 events was collected to create each DNA content histogram. […]
DNA content was ascertained by flow cytometry and cell cycle factors determined using multicycle software (Phoenix Flow Systems, San Diego).
(In general: In flow cytometry, cells or beads pass a laser one at a time.)

Experiment [2] deals with NOTCH-1. Kind of experiment: NOTCH-sensitive luciferase reporter gene assay in transiently transfected U2OS cells. It is filed as cell-based, human. The procedure: FIG. 4A-4B. HD and PEST domain mutations activate NOTCH-1 signaling synergistically. (4A) Reporter gene assays. U2OS cells were transiently co-transfected in 24-well format with the indicated pcDNA3 plasmids, a NOTCH-responsive luciferase reporter gene, and an internal Renilla luciferase internal control plasmid, as described previously (Aster, et al., Mol. Cell. Biol. 20:7505-15). Twenty-five ng of pcDNA3 plasmid was used per well, except for experiments with pcDNA3-ICN1, in which 5 ng of plasmid per well were used. Normalized luciferase activities in whole cell lysates were determined in triplicate and expressed relative to the activity in lysates prepared from cells transfected with the empty vector control. (4B) Model for synergistic NOTCH-1 activation by dual mutations involving both the HD and PEST domains.
NOTCH-1 expression plasmids (pcDNA3) were transiently transfected with U2OS cells with (i) an artificial luciferase reporter gene under the control of a promoter containing CSL binding sites and (ii) an internal Renilla luciferase control gene, as described previously (Aster, et al., Mol. Cell. Biol. 20:7505-7515 (2000)), using Lipofectamine Plus (Invitrogen). Total DNA was kept constant by adding empty vector as needed. All transfections were carried out in triplicate, and each experiment was repeated at least three times.
On the technique in general: Reporter assays use an easily measured gene product as a stand-in for the process of interest.

Take `C[C@H](NC(=O)Cc1cc(F)cc(F)c1)C(=O)N[C@H]1N=C(c2ccccc2)c2ccccc2N(C)C1=O` [γ-secretase inhibitor, compound E]: the “cell cycle distribution (G0/G1 cell cycle arrest) of T-ALL cell lines” value in experiment [1] is listed as “five of thirty human T-ALL cell lines tested showed a G0/G1 cell cycle arrest”. In experiment [2] (HD and/or PEST domain mutated NOTCH-1 plasmids), the “stimulatory effects of mutated transmembrane NOTCH-1 polypeptides on luciferase reporter activity” value is listed as “completely abrogated”. Besides, in experiment [2] (pcDNA3-ICN1 (constitutively nuclear)), the “stimulation of luciferase reporter activity produced by ICN1” value was “unaffected”.
